Test results from patent publication US20080207711A1, “Method for treating an ID2-related disorder” (priority 2007, published 2008).

Test system: Pkd2−/− mice
Test: Treatment of pregnant female mice from a Pkd2+/- cross; newborn pups examined for kidney cysts, kidney size, edema and body size
Format: in vivo
Method: FIG. 1. […] (a) wild-type and (b) Pkd2^−/− kidneys without rosiglitazone treatment. (c) Pkd2^+/− and (d) Pkd2^−/− kidneys with rosiglitazone treatment.
Rosiglitazone, which may inhibit Id2 activity, alleviates the effects of Pkd loss of function mutations. This was shown by treating pregnant female mice from a cross between Pkd2^+/− mice with 80 mg/kg diet/day ciglitazone or rosiglitazone for ten days prior to delivery. […] Similarly, Id2 knockout mice were small. […] In contrast, ciglitazone treatment appeared to have no effect on newborn Pkd2^−/− mice.

[1] = mother treated 80 mg/kg diet/day for ten days prior to delivery

SMILES	effect on newborn Pkd2−/− mice [1]	cyst formation in Pkd2−/− kidneys (FIG. 1, kidneys with vs without treatment)	body size of newborn pups [1]	edema in Pkd2−/− pup [1]	kidney size and morphology of Pkd2−/− pup (mother treated 80 mg/kg diet/day for ten days prior to delivery, compared to Pkd2−/− littermates of untreated mothers)
CC1(COc2ccc(CC3SC(=O)NC3=O)cc2)CCCCC1 (centres unmarked) [ciglitazone, 5-[4-[(1 methylcyclohexyl)methoxy]benzyl]thiazolidine-2,4-dione]	no effect	–	–	–	–
CN(CCOc1ccc(CC2SC(=O)NC2=O)cc1)c1ccccn1 (centres unmarked) [rosiglitazone, 5-[4-[2-(N-methyl-N-(2-pyridyl)amino)ethoxy]benzyl]thiazolidine-2,4-dione]	–	inhibits cyst formation	small body size in six of newborn pups	no edema	kidneys of normal size and morphology
